Among the data in DBAASP are MIC values, retold here.

In general, MIC refers to the lowest concentration that inhibits growth of the organism. Low readings indicate inhibition by little substance, high ones a need for much substance.

≈ marks a conversion by molar mass, not a printed value. Where only a bound is given, the exact number is not on record here.

Test systems include Pseudomonas aeruginosa 9; Escherichia coli D31; Escherichia coli BL21AI; Escherichia coli DC2; Salmonella typhimurium.
What all share (assay): ≥ marks a high value that may be exact or a test limit, other limits are often not marked, values filed in µg/mL are converted to µM
Test [1] concerns Enterococcus faecium t62764.
For test [2], the system named is Pseudomonas aeruginosa PAO1 H103.
Test [3] deals with Escherichia coli ESBL 64771.
The subject of test [4] is Pseudomonas aeruginosa 198.
The test system of test [5] is Pseudomonas aeruginosa LES400.
For test [6], the system named is Enterococcus faecalis W61950.
Test [7] concerns Pseudomonas aeruginosa H1027.
In test [8] the test system is Enterococcus faecalis ATCC 29212.
Test [9] relates to Stenotrophomonas maltophilia ATCC 13637.
The subject of test [10] is Staphylococcus aureus C623.
Test [11] has as its system Pseudomonas aeruginosa 213.
The subject of test [12] is Pseudomonas aeruginosa H1030.
The test system of test [13] is Staphylococcus aureus ATCC 25923.
Test [14] relates to Escherichia coli ESBL 63103.
Test [15] has as its system Klebsiella pneumoniae ESBL 61962.
In test [16] the test system is Enterococcus faecium mic80.
Test [17] has as its system Klebsiella pneumoniae ESBL 63575.
Test [18] relates to Enterococcus faecalis f43559.
In test [19] the test system is Enterobacter cloacae 218R.
The test system of test [20] is Staphylococcus aureus PCM 1944.
Test [21] has as its system Escherichia coli PCM 2057.
In test [22] the test system is Micrococcus luteus ATCC 10240.
Test [23] concerns Escherichia coli DSM 1103.
For test [24], the system named is Klebsiella pneumoniae DSM 681.
For test [25], the system named is Klebsiella pneumoniae K6 ATCC 700603.
Test [26] concerns Salmonella enterica subsp. enterica serovar Typhimurium ATCC 700408.
Test [27] has as its system Bacillus subtilis IAM 1026.
Test [28] deals with Aeromonas salmonicida NCIMB 1102.
In test [29] the test system is Vibrio parahaemolyticus Vp+1.
In test [30] the test system is Vibrio anguillarum NCIMB 829.
Test [31] concerns Photobacterium damselae subsp. piscicida Sp 9587.
Test [32] deals with Staphylococcus aureus IAM 1011.
The test system of test [33] is Shewanella putrefaciens IAM 1509.
The test system of test [34] is Escherichia coli JCM 1649.

As to `CC(C)[C@H](NC(=O)[C@H](CCCN=C(N)N)NC(=O)[C@H](CCCCN)NC(=O)[C@@H](NC(=O)[C@H](Cc1ccccc1)NC(=O)[C@H](CCCCN)NC(=O)[C@H](Cc1c[nH]c2ccccc12)NC(=O)[C@@H](NC(=O)[C@H](C)N)C(C)C)C(C)C)C(=O)O` [AVWKFVKRV], the minimal inhibitory concentration (MIC) in test [1] is not below 93.6 µM; in test [2] it was not below 186 µM; in test [3], not below 93.6 µM; in [4] it was not below 186 µM; in [5], not below 186 µM; in [6] it was not below 186 µM. The MIC in [7] was not below 93.6 µM; in test [8], more than 186 µM; in test [9], not below 46.8 µM; in test [10] it was not below 186 µM; in [11], not below 186 µM; in test [12] it was not below 186 µM. Also, the MIC in test [13] was 186 µM (≈ 211 µg/mL); in [14], not below 186 µM; in test [15] it was not below 186 µM; in [16], not below 93.6 µM; in [17], not below 186 µM; in [18], not below 186 µM. Besides, the minimum inhibitory concentration (MIC) (against Pseudomonas aeruginosa 9; in [19]) was not below 186 µM each time.

As to `C[C@@H]1NC(=O)[C@H](C)NC(=O)[C@H](CCCCN)NC(=O)[C@@H](N)CSSC[C@@H](C(=O)O)NC(=O)[C@H](Cc2ccccc2)NC1=O` [CKAAFC], the minimum inhibitory concentration (MIC) in test [20] and in [21] was not below 1560 µM throughout.

`CC[C@H](C)[C@H](NC(=O)[C@H](CCCN=C(N)N)NC(=O)[C@@H]1CCCN1C(=O)[C@H](Cc1cnc[nH]1)NC(=O)[C@@H]1CCCN1C(=O)[C@@H]1CCCN1C(=O)[C@H](CCCN=C(N)N)NC(=O)[C@@H]1CCCN1C(=O)[C@H](CCCN=C(N)N)NC(=O)[C@@H]1CCCN1C(=O)[C@@H](NC(=O)[C@H](Cc1ccc(O)cc1)NC(=O)[C@@H](NC(=O)[C@@H]1CCCN1C(=O)[C@H](CCCN=C(N)N)NC(=O)[C@H](CC(N)=O)NC(=O)[C@H](CC(N)=O)NC(=O)CN)C(C)C)[C@@H](C)CC)C(N)=O` [GNNRPVYIPRPRPPHPRI]: the MIC came to 0.459 µM (≈ 0.98 µg/mL) in [22]; 0.459 µM (≈ 0.98 µg/mL) in test [23]; 7.31 µM (≈ 15.6 µg/mL) in test [24]; 30 µM (≈ 64 µg/mL) against Escherichia coli D31; 0.229 µM (≈ 0.49 µg/mL) against Escherichia coli BL21AI; 3.66 µM (≈ 7.81 µg/mL) with Escherichia coli DC2. Further, the MIC in [25] is 3.74 µM (≈ 8 µg/mL); in test [26] it was 0.936 µM (≈ 2 µg/mL).

For `CC[C@H](C)[C@H](NC(=O)[C@H](CC(N)=O)NC(=O)[C@H](CO)NC(=O)[C@H](CC(C)C)NC(=O)[C@H](C)NC(=O)CNC(=O)[C@H](Cc1ccccc1)NC(=O)[C@H](CC(C)C)NC(=O)[C@H](CO)NC(=O)[C@@H]1CCCN1C(=O)[C@@H](NC(=O)[C@H](CC(C)C)NC(=O)[C@H](CCCCN)NC(=O)[C@@H](NC(=O)[C@H](CC(C)C)NC(=O)[C@H](Cc1ccccc1)NC(=O)CNC(=O)[C@H](Cc1ccccc1)NC(=O)[C@@H](N)CC(C)C)[C@@H](C)CC)[C@@H](C)CC)C(=O)NCC(=O)N[C@@H](CCCN=C(N)N)C(=O)N[C@@H](CC(N)=O)C(=O)N[C@@H](CCCN=C(N)N)C(=O)N[C@@H](CC(N)=O)C(=O)N[C@@H](CCC(N)=O)C(=O)O` [LFGFLIKLIPSLFGALSNIGRNRNQ], the minimal inhibitory concentration (MIC) stood at 8.96 µM (≈ 25 µg/mL) in test [27]; 17.9 µM (≈ 50 µg/mL) in [28]; 17.9 µM (≈ 50 µg/mL) in the test with Salmonella typhimurium; 8.96 µM (≈ 25 µg/mL) in test [29]; 17.9 µM (≈ 50 µg/mL) in test [30]; 4.48 µM (≈ 12.5 µg/mL) in test [31]. The minimal inhibitory concentration (MIC) in test [32] was determined as 2.24 µM (≈ 6.25 µg/mL); in [33] it was 4.48 µM (≈ 12.5 µg/mL); in [34], 17.9 µM (≈ 50 µg/mL).

`CC[C@H](C)[C@H](NC(=O)[C@@H](NC(=O)[C@@H](N)CO)C(C)C)C(=O)NCC(=O)N[C@H]1CSSC[C@@H](C(=O)N[C@@H](Cc2ccccc2)C(=O)N[C@H](C(=O)N[C@@H](CCCCN)C(N)=O)C(C)C)NC(=O)[C@@H]2CCCN2C(=O)[C@H](CCCN=C(N)N)NC(=O)[C@@H]2CCCN2C(=O)[C@@H]2CCCN2C(=O)[C@H]([C@@H](C)CC)NC(=O)[C@H](CO)NC(=O)[C@H](Cc2ccccc2)NC(=O)[C@H]([C@@H](C)O)NC(=O)[C@H](Cc2c[nH]c3ccccc23)NC1=O` [SVIGCWTFSIPPRPCFVK]: the minimum inhibitory concentration (MIC) in test [20] and in test [21] was not below 491 µM throughout.
